What was measured:
[1] = biological target: Histamine H3 receptor (Rattus norvegicus, UniProt Q9QYN8); experiment: Binding affinity towards rat cortical Histamine H3 receptor
[2] = biological target: T1, Histamine H3 receptor (Homo sapiens, UniProt Q9Y5N1); experiment: Binding affinity towards cloned human H3L receptor
[3] = biological target: Histamine H2 receptor (Homo sapiens, UniProt P25021); experiment: Compound was tested for its binding affinity towards human H2 receptor
[4] = biological target: Histamine H1 receptor (Homo sapiens, UniProt P35367); experiment: Compound was tested for its binding affinity towards human H1 receptor
Sequence of Histamine H1 receptor (P35367 whole entry): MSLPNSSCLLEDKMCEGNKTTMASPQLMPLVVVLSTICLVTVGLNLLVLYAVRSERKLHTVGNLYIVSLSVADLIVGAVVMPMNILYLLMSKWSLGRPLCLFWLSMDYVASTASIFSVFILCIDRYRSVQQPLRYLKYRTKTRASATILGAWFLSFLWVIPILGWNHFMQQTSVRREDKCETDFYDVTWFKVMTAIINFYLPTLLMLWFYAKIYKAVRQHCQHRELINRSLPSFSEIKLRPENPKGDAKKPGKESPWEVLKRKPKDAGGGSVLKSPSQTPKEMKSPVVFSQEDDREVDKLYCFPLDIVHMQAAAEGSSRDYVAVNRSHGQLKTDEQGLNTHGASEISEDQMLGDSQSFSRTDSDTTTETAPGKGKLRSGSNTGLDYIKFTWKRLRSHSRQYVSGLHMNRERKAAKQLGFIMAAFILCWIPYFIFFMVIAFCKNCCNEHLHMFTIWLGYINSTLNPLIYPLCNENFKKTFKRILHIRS

[5] = biological target: T1, Histamine H3 receptor; experiment: Compound was tested for its binding affinity towards human H3L receptor

T1 sequence (Q9Y5N1 whole entry): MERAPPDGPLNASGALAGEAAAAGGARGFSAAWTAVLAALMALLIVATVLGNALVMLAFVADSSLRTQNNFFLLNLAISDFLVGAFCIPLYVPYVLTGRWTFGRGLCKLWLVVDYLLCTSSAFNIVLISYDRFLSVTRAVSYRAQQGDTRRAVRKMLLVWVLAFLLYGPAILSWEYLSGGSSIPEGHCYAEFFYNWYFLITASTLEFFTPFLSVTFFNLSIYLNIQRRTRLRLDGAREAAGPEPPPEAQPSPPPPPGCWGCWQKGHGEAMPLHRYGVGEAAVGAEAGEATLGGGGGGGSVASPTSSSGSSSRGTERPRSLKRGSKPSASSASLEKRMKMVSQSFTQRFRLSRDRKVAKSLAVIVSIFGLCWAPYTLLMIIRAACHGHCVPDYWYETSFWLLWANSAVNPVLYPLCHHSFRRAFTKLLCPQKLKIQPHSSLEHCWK
Sequence of Histamine H2 receptor (P25021 whole entry): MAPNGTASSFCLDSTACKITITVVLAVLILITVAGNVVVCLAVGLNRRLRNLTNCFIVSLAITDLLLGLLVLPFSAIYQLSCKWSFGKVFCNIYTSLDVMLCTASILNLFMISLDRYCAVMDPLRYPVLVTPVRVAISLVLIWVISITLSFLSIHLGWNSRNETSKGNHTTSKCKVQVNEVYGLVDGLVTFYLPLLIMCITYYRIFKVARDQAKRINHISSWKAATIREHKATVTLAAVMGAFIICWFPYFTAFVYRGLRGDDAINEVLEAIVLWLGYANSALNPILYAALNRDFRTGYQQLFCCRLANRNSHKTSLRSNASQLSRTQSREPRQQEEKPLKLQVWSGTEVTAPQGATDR
Sequence of Histamine H3 receptor (Rattus norvegicus, UniProt Q9QYN8) (Q9QYN8 whole entry): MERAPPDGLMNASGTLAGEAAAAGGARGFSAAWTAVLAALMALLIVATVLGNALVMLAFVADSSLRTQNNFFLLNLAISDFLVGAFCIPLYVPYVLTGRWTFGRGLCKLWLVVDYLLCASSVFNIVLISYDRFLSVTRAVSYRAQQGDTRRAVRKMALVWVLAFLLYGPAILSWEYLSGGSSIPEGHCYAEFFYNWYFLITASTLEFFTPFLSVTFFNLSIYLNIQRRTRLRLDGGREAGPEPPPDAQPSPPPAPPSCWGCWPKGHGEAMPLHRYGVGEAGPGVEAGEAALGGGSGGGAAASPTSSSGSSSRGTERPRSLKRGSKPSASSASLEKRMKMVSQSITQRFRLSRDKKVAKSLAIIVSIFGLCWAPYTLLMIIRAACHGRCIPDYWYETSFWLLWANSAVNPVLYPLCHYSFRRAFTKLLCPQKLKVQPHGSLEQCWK

Ki [1] [nM] | Ki [2] [nM] | Ki [3] [nM] | Ki [4] [nM] | Ki [5] [nM] | SMILES
2.51 | 1.74 | 3780 | 15700 | 6.6 | c1ccc2c(NCCCN3CCCC3)c3c(nc2c1)CCCCC3
646 | 214 | – | – | – | C(#Cc1c2c(nc3ccccc13)CCCCC2)CCN1CCCC1
97.7 | 51.3 | – | – | – | CN1CCN(CCCNc2c3c(nc4ccccc24)CCCCC3)CC1
21.9 | 9.77 | 10100 | 7700 | 9.7 | CN(C)CCCNc1c2c(nc3ccccc13)CCCCC2
> 1000 | > 1000 | – | – | – | c1ccc2c(NCCCn3ccnc3)c3c(nc2c1)CCCCC3
148 | 47.9 | – | – | – | CN(C)CCNc1c2c(nc3ccccc13)CCCCC2
38.9 | 43.7 | – | – | – | CN(C)CCCCNc1c2c(nc3ccccc13)CCCCC2
74.1 | 44.7 | – | – | – | N[C@@H]1[C@H]2CN(CCCNc3c4c(nc5ccccc35)CCCCC4)C[C@@H]12
18.2 | 6.61 | 1730 | 4080 | 6.6 | CN1CCCC1CCNc1c2c(nc3ccccc13)CCCCC2 (stereo not drawn)
> 1000 | > 1000 | – | – | – | C(#Cc1c2c(nc3ccccc13)CCCCC2)CCN1CCOCC1
398 | 759 | – | – | – | c1ccc2c(NCCCN3CCOCC3)c3c(nc2c1)CCCCC3

More lines, now with the values behind:

SMILES | Ki [1] [nM] | Ki [2] [nM] | Ki [3] [nM] | Ki [4] [nM] | Ki [5] [nM]
CC(C)(C)OC(=O)N1CCCN(c2c3c(nc4ccccc24)CCCCC3)CC1 | > 1000 | > 1000 | – | – | –
OC[C@@H]1CCN(CCC#Cc2c3c(nc4ccccc24)CCCCC3)C1 | 617 | 251 | – | – | –
OC[C@H]1CCN(CCC#Cc2c3c(nc4ccccc24)CCCCC3)C1 | > 1000 | 955 | – | – | –
CN(C)CCCNc1c2c(nc3c1CCCC3)CCCCC2 | 355 | – | – | – | –
C(#Cc1c2c(nc3ccccc13)CCCCCC2)CCN1CCCCC1 | 646 | 158 | – | – | –
CC(C)(C)OC(=O)N1CCN(c2c3c(nc4ccccc24)CCCCC3)CC1 | > 1000 | > 1000 | – | – | –
CN(C)CCC#Cc1c2c(nc3ccccc13)CCCCC2 | 692 | 389 | – | – | –
CN1CCN(CCC#Cc2c3c(nc4ccccc24)CCCCC3)CC1 | > 1000 | 724 | – | – | –
c1ccc2c(N3CCCNCC3)c3c(nc2c1)CCCCC3 | > 1000 | > 1000 | – | – | –
CN(C)CCCNc1c2c(nc3ccccc13)CCSC2 | 58.9 | 53.7 | – | – | –
CC(C)(C)OC(=O)N[C@H]1[C@@H]2CN(CCCNc3c4c(nc5ccccc35)CCCCC4)C[C@@H]21 | 51.3 | 46.8 | – | – | –
C(=C/c1c2c(nc3ccccc13)CCCCC2)/CCN1CCCCC1 | 275 | 87.1 | – | – | –
C(#Cc1c2c(nc3ccccc13)CCCCC2)CCN1CCCCC1 | 407 | 79.4 | 3210 | 1000 | 80
C(#Cc1c2c(nc3ccccc13)CCCCC2)CCN1CCCCCC1 | > 1000 | 437 | – | – | –
CC(=O)N(CCCN(C)C)c1c2c(nc3ccccc13)CCCCC2 | > 1000 | 1000 | – | – | –

Reference: ChEMBL document CHEMBL1136076, “A new class of histamine H(3)-receptor antagonists: synthesis and structure-activity relationships of 7,8,9,10-tetrahydro-6H-cyclohepta[b]quinolines” (Bioorg Med Chem Lett, 2003)
